From patent US20200131132A1, “FARNESOID X RECEPTOR AGONISTS AND USES THEREOF” (Metacrine, Inc., priority 2017, published 2020)

Target: T1, hFXR (Homo sapiens, UniProt Q96RI1)
T1 construct: expressed in transfected cells; host or cells: CV-1 cells
T1 sequence (Q96RI1 1-486): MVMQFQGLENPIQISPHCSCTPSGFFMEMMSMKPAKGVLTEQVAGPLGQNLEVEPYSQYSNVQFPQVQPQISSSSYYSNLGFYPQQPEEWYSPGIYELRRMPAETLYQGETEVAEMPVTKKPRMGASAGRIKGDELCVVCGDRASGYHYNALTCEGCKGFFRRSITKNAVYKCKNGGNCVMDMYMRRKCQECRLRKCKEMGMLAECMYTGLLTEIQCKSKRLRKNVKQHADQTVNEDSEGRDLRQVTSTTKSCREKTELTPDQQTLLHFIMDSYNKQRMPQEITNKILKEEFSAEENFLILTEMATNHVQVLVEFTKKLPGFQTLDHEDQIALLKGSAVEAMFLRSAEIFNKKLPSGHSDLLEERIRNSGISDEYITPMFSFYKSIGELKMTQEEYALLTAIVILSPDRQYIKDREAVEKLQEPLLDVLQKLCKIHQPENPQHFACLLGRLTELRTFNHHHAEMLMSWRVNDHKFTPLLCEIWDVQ
T1 sequence (P19793 1-462 partner): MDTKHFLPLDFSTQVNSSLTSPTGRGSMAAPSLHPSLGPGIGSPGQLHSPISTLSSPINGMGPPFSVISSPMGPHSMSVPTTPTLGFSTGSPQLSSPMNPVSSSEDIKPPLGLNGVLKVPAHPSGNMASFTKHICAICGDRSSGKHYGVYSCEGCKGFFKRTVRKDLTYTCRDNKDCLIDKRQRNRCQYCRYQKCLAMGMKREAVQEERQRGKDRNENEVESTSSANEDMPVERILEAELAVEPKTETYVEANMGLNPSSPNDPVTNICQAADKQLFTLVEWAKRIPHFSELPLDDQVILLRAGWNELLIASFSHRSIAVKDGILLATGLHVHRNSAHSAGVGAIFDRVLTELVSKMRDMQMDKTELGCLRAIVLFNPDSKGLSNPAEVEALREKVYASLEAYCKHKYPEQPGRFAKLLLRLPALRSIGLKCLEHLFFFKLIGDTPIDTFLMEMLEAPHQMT
Test: In Vitro FXR Assay (TK)
Type: cell-based
Settings: CV-1 cells transfected with hFXR, hRXR, TK-ECRE-luc and pCMX-YFP; compounds incubated 18 hrs; luminescence
In short: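 Transiently transfected monkey CV-1 cells (hFXR, hRXR, TK-ECRE-luciferase, YFP control plasmid), held in stripped-serum DMEM, received compound dilutions from DMSO for 18 h at 37 °C. Activity was taken from luminescence of the cell lysates.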

Structure (SMILES) | EC50 [nM]
COc1ccc2c(N(Cc3ccc(-c4ccc(OC)c(C)c4)cc3CO)C(=O)CC(C)(C)C)nccc2c1 [Compound 21, N-((3-(Hydroxymethyl)-4′-methoxy-3′-methyl-[1,1′-biphenyl]-4-yl)methyl)-N-(6-methoxyisoquinolin-1-yl)-3,3-dimethylbutanamide] | 1000 to 10000
COc1ccc2c(N(Cc3ccc(-c4ccc(OC)c(C)c4)c(CO)c3)C(=O)CC(C)(C)C)nccc2c1 [Compound 21.01, N-((2-(Hydroxymethyl)-4′-methoxy-3′-methyl-[1,1′-biphenyl]-4-yl)methyl)-N-(6-methoxyisoquinolin-1-yl)-3,3-dimethylbutanamide] | 1000 to 10000
COc1ccc(-c2ccc(CN(C(=O)CC(C)(C)C)c3nccc4cc(/C=C\CO)ccc34)cc2)cc1C [Compound 22, (Z)-N-(6-(3-Hydroxyprop-1-en-1-yl)isoquinolin-1-yl)-N-((4′-methoxy-3′-methyl-[1,1′-biphenyl]-4-yl)methyl)-3,3-dimethylbutanamide] | ≤ 1000
COc1ccc(-c2ccc(CN(C(=O)CC(C)(C)C)c3nccc4cc(/C=C/CO)ccc34)cc2)cc1C [Compound 23, (E)-N-(6-(3-Hydroxyprop-1-en-1-yl)isoquinolin-1-yl)-N-((4′-methoxy-3′-methyl-[1,1′-biphenyl]-4-yl)methyl)-3,3-dimethylbutanamide] | ≤ 1000
COc1ccc(-c2ccc(CN(C(=O)CC(C)(C)C)c3nccc4cc(CCCO)ccc34)cc2)cc1C [Compound 24, N-(6-(3-Hydroxypropyl)isoquinolin-1-yl)-N-((4′-methoxy-3′-methyl-[1,1′-biphenyl]-4-yl)methyl)-3,3-dimethylbutanamide] | ≤ 1000
COc1ccc(-c2ccc(CN(C(=O)CC(C)(C)C)c3nccc4cc(CCO)ccc34)cc2)cc1C [Compound 25, N-(6-(2-Hydroxyethyl)isoquinolin-1-yl)-N-((4′-methoxy-3′-methyl-[1,1′-biphenyl]-4-yl)methyl)-3,3-dimethylbutanamide] | ≤ 1000
COc1ccc(-c2ccc(CN(C(=O)CC(C)(C)C)c3nccc4cc(C(C)O)ccc34)cc2)cc1C (stereo not shown) [Compound 26, N-(6-(1-Hydroxyethyl)isoquinolin-1-yl)-N-((4′-methoxy-3′-methyl-[1,1′-biphenyl]-4-yl)methyl)-3,3-dimethylbutanamide] | ≤ 1000

Next, values leading:

EC50 [nM] | Structure (SMILES)
≤ 1000 | COc1ccc(-c2ccc(CN(C(=O)CC(C)(C)C)c3nccc4cc(CC#N)ccc34)cc2)cc1C [Compound 27, N-(6-(Cyanomethyl)isoquinolin-1-yl)-N-((4′-methoxy-3′-methyl-[1,1′-biphenyl]-4-yl)methyl)-3,3-dimethylbutanamide]
> 10000 | COc1ccc(-c2ccc(CN(C(=O)CC(C)(C)C)c3nccc4cc(OC5CCNCC5)ccc34)cc2)cc1C [Compound 28, N-((4′-Methoxy-3′-methyl-[1,1′-biphenyl]-4-yl)methyl)-3,3-dimethyl-N-(6-(piperidin-4-yloxy)isoquinolin-1-yl)butanamide]
1000 to 10000 | COc1ccc(-c2ccc(CN(C(=O)CC(C)(C)C)c3nccc4cc(OC5CNC5)ccc34)cc2)cc1C [Compound 28.01, N-(6-(Azetidin-3-yloxy)isoquinolin-1-yl)-N-((4′-methoxy-3′-methyl-[1,1′-biphenyl]-4-yl)methyl)-3,3-dimethylbutanamide]
> 10000 | COc1ccc(-c2ccc(CN(C(=O)CC(C)(C)C)c3nccc4cc(OCC(=O)O)ccc34)cc2)cc1C [Compound 29, 2-((1-(N-((4′-Methoxy-3′-methyl-[1,1′-biphenyl]-4-yl)methyl)-3,3-dimethylbutanamido)isoquinolin-6-yl)oxy)acetic acid]
1000 to 10000 | COc1ccc(-c2ccc(CN(C(=O)CC(C)(C)C)c3nccc4cc(COCC(=O)O)ccc34)cc2)cc1C [Compound 29.01, 2-((1-(N-((4′-Methoxy-3′-methyl-[1,1′-biphenyl]-4-yl)methyl)-3,3-dimethylbutanamido)isoquinolin-6-yl)methoxy)acetic acid]
> 10000 | COc1ccc(-c2ccc(CN(C(=O)CC(C)(C)C)c3nccc4cc(OC5CN(C)C5)ccc34)cc2)cc1C [Compound 30, N-((4′-Methoxy-3′-methyl-[1,1′-biphenyl]-4-yl)methyl)-3,3-dimethyl-N-(6-((1-methylazetidin-3-yl)oxy)isoquinolin-1-yl)butanamide]
≤ 1000 | COc1ccc(-c2ccc(CN(C(=O)CC(C)(C)C)c3nccc4cc(OC(C)CO)ccc34)cc2)cc1C (stereo not shown) [Compound 31, N-(6-((1-Hydroxypropan-2-yl)oxy)isoquinolin-1-yl)-N-((4′-methoxy-3′-methyl-[1,1′-biphenyl]-4-yl)methyl)-3,3-dimethylbutanamide]
≤ 1000 | COc1ccc(-c2ccc(CN(C(=O)CC(C)(C)C)c3nccc4cc(OCCS(C)(=O)=O)ccc34)cc2)cc1C [Compound 32, N-((4′-Methoxy-3′-methyl-[1,1′-biphenyl]-4-yl)methyl)-3,3-dimethyl-N-(6-(2-(methylsulfonyl)ethoxy)isoquinolin-1-yl)butanamide]
≤ 1000 | COc1ccc(-c2ccc(CN(C(=O)CC(C)(C)C)c3nccc4cc(OCC[S+](C)[O-])ccc34)cc2)cc1C (stereo not shown) [Compound 33, N-((4′-Methoxy-3′-methyl-[1,1′-biphenyl]-4-yl)methyl)-3,3-dimethyl-N-(6-(2-(methylsulfinyl)ethoxy)isoquinolin-1-yl)butanamide]
